Data as given in PMC8766756, “Insights on Cancer Cell Inhibition, Subcellular Activities, and Kinase Profile of Phenylacetamides Pending 1H-Imidazol-5-One Variants” (Frontiers in Pharmacology, 2022).

Biological target: T1, Mer (Q12866) (Homo sapiens, UniProt Q12866)
T1 construct: purchased PamGene (PamChip PTK array, Upstream Kinase Analysis)
T1 sequence (Q12866 21-999): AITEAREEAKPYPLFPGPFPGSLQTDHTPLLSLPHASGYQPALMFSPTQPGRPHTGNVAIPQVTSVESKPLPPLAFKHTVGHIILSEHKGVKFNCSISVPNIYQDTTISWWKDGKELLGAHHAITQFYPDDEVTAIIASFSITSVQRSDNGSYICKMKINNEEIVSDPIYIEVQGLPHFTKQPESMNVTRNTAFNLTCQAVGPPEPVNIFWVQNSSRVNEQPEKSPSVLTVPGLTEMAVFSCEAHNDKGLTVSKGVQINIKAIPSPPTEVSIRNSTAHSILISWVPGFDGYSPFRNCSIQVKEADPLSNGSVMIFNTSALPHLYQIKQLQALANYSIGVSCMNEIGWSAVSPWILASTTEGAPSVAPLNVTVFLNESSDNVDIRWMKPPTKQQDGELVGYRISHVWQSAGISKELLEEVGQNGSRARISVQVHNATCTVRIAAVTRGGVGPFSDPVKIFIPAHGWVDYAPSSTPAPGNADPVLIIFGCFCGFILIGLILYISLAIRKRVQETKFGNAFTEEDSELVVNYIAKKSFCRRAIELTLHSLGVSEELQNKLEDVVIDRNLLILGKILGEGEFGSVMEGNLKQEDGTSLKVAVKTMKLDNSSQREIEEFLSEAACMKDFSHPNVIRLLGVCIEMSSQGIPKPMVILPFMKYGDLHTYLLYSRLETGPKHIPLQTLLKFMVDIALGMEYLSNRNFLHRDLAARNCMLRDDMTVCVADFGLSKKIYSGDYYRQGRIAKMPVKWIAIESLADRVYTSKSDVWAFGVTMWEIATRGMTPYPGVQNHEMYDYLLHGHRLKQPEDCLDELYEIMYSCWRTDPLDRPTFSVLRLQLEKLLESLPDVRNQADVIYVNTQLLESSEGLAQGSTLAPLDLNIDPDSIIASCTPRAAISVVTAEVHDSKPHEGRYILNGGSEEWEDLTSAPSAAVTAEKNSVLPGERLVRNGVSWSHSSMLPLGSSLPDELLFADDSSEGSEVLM
Assay: PamChip tyrosine kinase microarray
Assay type: biochemical
Conditions: 0.1 µM, HL60 lysate
In short: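 HL60 (AML) cell lysate was spiked with compound at 0.001, 0.01, 0.1, 1, 10 and 50 µM, or 2% v/v DMSO as control, then profiled in technical replicates on a tyrosine kinase peptide array of 196 phosphosites. Kinase activity was inferred from peptide-set changes using an upstream kinase tool.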

With `COc1ccc(/C=C2\N=C(C)N(c3ccc(CC(=O)NCc4ccccc4)cc3)C2=O)cc1` [Compound 4c, (Z)-N-Benzyl-2-(4-(4-(4-methoxybenzylidene)-2-methyl-5-oxo-4,5-dihydro-1H-imidazol-1-yl)phenyl)acetamide] the “Mean Final score (Kinase score)” value was 2.544, the “Mean Kinase Statistic” value was -1.224 and the “Mean Significance Score” value was 2.048. For the same molecule, the “Mean Specificity Score” value was 0.533.
